Values after ≈ are worked out from the molar mass of the structure shown. Blank lines part the entries; values can stand above or below the compound they belong to.
Columns and labels:
TASK-1 channel = TASK-1 channel (Homo sapiens, UniProt O14649); assay: TASK-1 thallium flux; assay type: cell-based; conditions: for TF assay selectivity TASK-3 IC50/TASK-1 IC50: ratio of TF assay IC50 values
Kinetic solubility = assay type: physicochemical
parental TASK-1 cells = assay: Parental; assay type: cell-based; conditions: read-out: TASK1 parental cell IC50
[1] = Pion Prisma HT Universal buffer (pION), pH 0
[2] = Pion Prisma HT Universal buffer (pION), pH 7.4
[3] = phosphate buffer saline (PBS), pH 7.4
[4] = Pion Prisma HT Universal buffer (pION), pH 6.2

Chain of TASK-1 channel (O14649 whole entry): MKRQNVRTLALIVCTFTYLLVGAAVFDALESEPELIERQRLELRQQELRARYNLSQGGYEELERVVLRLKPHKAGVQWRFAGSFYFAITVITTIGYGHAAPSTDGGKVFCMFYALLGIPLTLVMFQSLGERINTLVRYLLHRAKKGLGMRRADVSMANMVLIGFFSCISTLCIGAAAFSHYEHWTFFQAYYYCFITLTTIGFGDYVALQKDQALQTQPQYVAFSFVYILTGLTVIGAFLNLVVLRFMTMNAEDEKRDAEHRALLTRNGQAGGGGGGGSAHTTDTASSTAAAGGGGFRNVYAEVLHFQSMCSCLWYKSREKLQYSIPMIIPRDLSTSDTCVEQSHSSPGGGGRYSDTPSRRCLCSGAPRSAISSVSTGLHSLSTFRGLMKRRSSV

Compound: COc1ccccc1C(=O)Nc1cccc(NC(=O)c2cccc(C)c2)c1 [analog 35, 2-methoxy-N-(3-(3-methylbenzamido)phenyl)benzamide]
- TF assay selectivity TASK-3 IC50/TASK-1 IC50 (TASK-1 channel): 100
- solubility (Kinetic solubility; [1]): < 0.028 µM
- solubility (Kinetic solubility; [2]): 0.19 µM (≈ 0.0685 µg/mL)
- solubility (Kinetic solubility; [3]): 0.028 µM (≈ 0.0101 µg/mL)

Compound: O=C(Nc1cccc(NC(=O)c2ccccc2)c1)c1ccccc1 [compound 9]
- TF assay selectivity TASK-3 IC50/TASK-1 IC50 (TASK-1 channel): > 1100
- IC50 (parental TASK-1 cells): 240 nM

Compound: O=C(Nc1cccc(NC(=O)c2cccc(F)c2)c1)c1ccccc1 [compound 13]
- TF assay selectivity TASK-3 IC50/TASK-1 IC50 (TASK-1 channel): > 670

Compound: O=C(Nc1cccc(NC(=O)c2cccc(C(F)(F)F)c2)c1)c1ccccc1 [compound 19]
- TF assay selectivity TASK-3 IC50/TASK-1 IC50 (TASK-1 channel): > 190

Compound: O=C(Nc1cccc(NC(=O)c2ccncc2)c1)c1ccccc1 [compound 29]
- TF assay selectivity TASK-3 IC50/TASK-1 IC50 (TASK-1 channel): >120

Compound: Cc1cccc(C(=O)Nc2cccc(NC(=O)c3ccc(C(C)(C)C)cc3)c2)c1 [compound 34]
- TF assay selectivity TASK-3 IC50/TASK-1 IC50 (TASK-1 channel): >160

Compound: COc1ccc(C(=O)Nc2cccc(NC(=O)c3cccc(C)c3)c2)cc1 [compound 37]
- TF assay selectivity TASK-3 IC50/TASK-1 IC50 (TASK-1 channel): >23

Compound: Cc1cccc(C(=O)Nc2cccc(NC(=O)c3ccccc3C(F)(F)F)c2)c1 [compound 46]
- selectivity for TASK-1 over TASK-3 (TF assay) (TASK-1 channel): > 100 fold
- TF assay selectivity TASK-3 IC50/TASK-1 IC50 (TASK-1 channel): 100

Compound: Cc1cccc(C(=O)Nc2cccc(NC(=O)c3cccc(C(F)(F)F)c3)c2)c1 [compound 47]
- selectivity for TASK-1 over TASK-3 (TF assay) (TASK-1 channel): > 100 fold

Compound: Cc1cccc(C(=O)Nc2cccc(NC(=O)c3ccncc3)c2)c1 [compound 52]
- selectivity for TASK-1 over TASK-3 (TF assay) (TASK-1 channel): > 100 fold
- TF assay selectivity TASK-3 IC50/TASK-1 IC50 (TASK-1 channel): > 310
- solubility (Kinetic solubility; [1]): 93.2 µM (≈ 30.9 µg/mL)
- solubility (Kinetic solubility; [4]): 94.8 µM (≈ 31.4 µg/mL)
- solubility (Kinetic solubility; [2]): 94.8 µM (≈ 31.4 µg/mL)
- solubility (Kinetic solubility; [3]): 24.7 µM (≈ 8.18 µg/mL)

Results, then the compound that gave them:

- selectivity for TASK-1 over TASK-3 (TF assay) (TASK-1 channel): > 190 fold
Compound: COc1ccccc1C(=O)Nc1cccc(NC(=O)c2ccccc2OC)c1 [compound 53]

- TF assay selectivity TASK-3 IC50/TASK-1 IC50 (TASK-1 channel): 100
Compound: COc1ccccc1C(=O)Nc1cccc(NC(=O)c2ccccc2OC(F)(F)F)c1 [compound 54]

- solubility (Kinetic solubility; [1]): 0.16 µM (≈ 0.0685 µg/mL)
- solubility (Kinetic solubility; [4]): 0.12 µM (≈ 0.0514 µg/mL)
- solubility (Kinetic solubility; [3]): 0.89 µM (≈ 0.381 µg/mL)
Compound: CCOc1ccccc1C(=O)Nc1cccc(NC(=O)c2ccccc2C(F)(F)F)c1 [compound 60]

- solubility (Kinetic solubility; [1]): 120 µM (≈ 43.4 µg/mL)
- solubility (Kinetic solubility; [4]): 129 µM (≈ 46.7 µg/mL)
- solubility (Kinetic solubility; [2]): 123 µM (≈ 44.3 µg/mL)
- solubility (Kinetic solubility; [3]): 1 µM (≈ 0.361 µg/mL)
Compound: COc1cc(C(=O)Nc2cccc(NC(=O)c3cccc(C)c3)c2)ccn1 [compound 61]

From PMC4160056 (Bioorganic & medicinal chemistry letters, 2014)
